The source of these data is ChEMBL document CHEMBL1201862, “PubChem BioAssay data set” (2004).

SMILES strings stand for the structures. Calls of active or inactive are those of the source. Some results are limits rather than exact numbers.

For assay [1], the target named is G-protein coupled receptor 55 (Homo sapiens, UniProt Q9Y2T6). Put plainly: inhibition of LPI-stimulated GPR55 beta-arrestin translocation – imaging, U2OS, beta-arrestin-GFP, LPI agonist, primary screen (AID 2013).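 Also: antagonist potency measured as reduced agonist-driven arrestin aggregation.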 In kind it is functional.
Assay [2] has as its target DNA dC->dU-editing enzyme APOBEC-3G (Homo sapiens, UniProt Q9HC16). It counts as functional.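 Also: Dose-response counterscreen measuring inhibition of APOBEC3G DNA deaminase activity, run while confirming APOBEC3A inhibitors.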
For assay [3], the target named is DNA dC->dU-editing enzyme APOBEC-3A (Homo sapiens, UniProt P31941). Nature of the assay: Dose Response confirmation of small molecule APOBEC3A DNA Deaminase Inhibitors via a fluorescence-based single-stranded DNA deaminase assay. [Related pubchem assays (depositor defined):AID493011, AID493024]. It counts as functional.
In a further assay the target is Aspartyl aminopeptidase (Plasmodium falciparum 3D7, UniProt Q8I2J3).
The next assay has as its target Procathepsin L (Homo sapiens, UniProt P07711).
Assay [4] addresses T1, Dual specificity protein phosphatase 6 (Rattus norvegicus, UniProt Q64346).
T1 sequence (Q64346 whole entry): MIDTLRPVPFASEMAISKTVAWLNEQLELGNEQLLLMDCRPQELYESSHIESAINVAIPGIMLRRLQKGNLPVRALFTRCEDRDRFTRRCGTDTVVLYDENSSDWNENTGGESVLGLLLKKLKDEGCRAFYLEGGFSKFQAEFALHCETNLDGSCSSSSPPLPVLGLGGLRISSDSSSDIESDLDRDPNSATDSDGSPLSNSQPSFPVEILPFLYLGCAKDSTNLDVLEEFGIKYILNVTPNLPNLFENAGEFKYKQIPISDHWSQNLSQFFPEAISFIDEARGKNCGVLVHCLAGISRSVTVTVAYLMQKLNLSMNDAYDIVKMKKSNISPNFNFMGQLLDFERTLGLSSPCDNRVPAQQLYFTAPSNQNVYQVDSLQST

In assay [5] the target is T1, Dual specificity protein phosphatase 6. In kind it is functional.
Assay [6] concerns the target T2, Tyrosine-protein phosphatase non-receptor type 7 (Homo sapiens, UniProt P35236).
T2 sequence (P35236 whole entry): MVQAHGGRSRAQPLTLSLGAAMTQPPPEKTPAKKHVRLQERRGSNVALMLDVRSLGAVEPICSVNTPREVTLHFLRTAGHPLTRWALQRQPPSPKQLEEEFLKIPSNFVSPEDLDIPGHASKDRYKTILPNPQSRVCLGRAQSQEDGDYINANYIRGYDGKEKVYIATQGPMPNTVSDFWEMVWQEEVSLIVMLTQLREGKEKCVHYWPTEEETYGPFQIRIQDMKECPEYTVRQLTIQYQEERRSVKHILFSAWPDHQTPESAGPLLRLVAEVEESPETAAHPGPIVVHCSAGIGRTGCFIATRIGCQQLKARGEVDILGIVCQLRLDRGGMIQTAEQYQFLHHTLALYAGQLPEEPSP
It counts as functional.

Assay [7] deals with Glyceraldehyde-3-phosphate dehydrogenase (Homo sapiens, UniProt P04406).
The target in assay [8] is 5-hydroxytryptamine receptor 2A (Mus musculus, UniProt P35363). In kind it is functional, cell-based.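 Also: CHO-K1 cells with tagged receptor and beta-arrestin; agonist potency measured as compound-induced activation of the receptor.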
Assay [9] concerns Streptococcus sp. 'group A'. Nature of the assay: Streptococcus pyogenes SK(-)GAS viability under kanamycin – luminescence, BacTiterGlo, confirmation, counter-screen for streptokinase expression inhibitor project, dose response (AID 1900). In kind it is functional, organism-based.
Another assay deals with Mu-type opioid receptor (Homo sapiens, UniProt P35372). It counts as functional, cell-based.
For a further assay, the target named is T3, Streptokinase A (Streptococcus pyogenes serotype M1, UniProt P10520).
T3 sequence (P10520 whole entry): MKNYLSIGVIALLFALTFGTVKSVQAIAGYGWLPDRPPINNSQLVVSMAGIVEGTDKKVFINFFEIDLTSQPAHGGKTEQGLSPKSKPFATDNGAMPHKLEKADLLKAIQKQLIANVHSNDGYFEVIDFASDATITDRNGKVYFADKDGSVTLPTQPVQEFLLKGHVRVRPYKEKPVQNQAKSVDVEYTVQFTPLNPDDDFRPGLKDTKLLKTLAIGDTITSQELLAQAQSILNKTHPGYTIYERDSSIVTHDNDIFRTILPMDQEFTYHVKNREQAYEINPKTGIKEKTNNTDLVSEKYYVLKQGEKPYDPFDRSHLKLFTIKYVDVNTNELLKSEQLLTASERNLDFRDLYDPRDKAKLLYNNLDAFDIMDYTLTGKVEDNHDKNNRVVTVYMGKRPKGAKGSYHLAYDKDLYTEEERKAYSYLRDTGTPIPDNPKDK
Nature of the assay: viability-normalized secreted streptokinase activity reduction – plasminogen activation absorbance, OD405, dose response (AID 1914).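 Also: secreted streptokinase activity via plasminogen activation per viability signal from cell pellet.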 It counts as functional, Streptococcus pyogenes M1 GAS.

Another assay deals with X-box-binding protein 1 (Homo sapiens, UniProt P17861). It counts as functional, Cricetulus griseus.
A further assay deals with Streptococcus. Put plainly: GAS UMAA2166 growth inhibition – luminescence, BacTiterGlo, counter-screen for streptokinase expression inhibitor project, dose response (AID 1915).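 Also: potency for reduction of bacterial viability or growth.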 In kind it is functional, organism-based.
The target of assay [10] is Eukaryotic translation initiation factor 4E (Mus musculus, UniProt P63073). Nature of the assay: blockers of eIF4G binding by eIF4E – biochemical, TR-FRET, dose response (AID 855).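 Also: potency for disrupting eIF4E binding to eIF4GI seen as loss of FRET.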 In kind it is functional.
Assay [11] deals with Acyl-homoserine lactone acylase PvdQ (Pseudomonas aeruginosa (strain LESB58), UniProt Q9I194). Nature of the assay: PvdQ acylase enzyme activity blockers – biochemical, fluorescence, plate reader and imaging, cherry-picks, dose response (AID 493231).
The target in the next assay is ORF 73 (Human herpesvirus 8, UniProt O40947). Nature of the assay: KSHV LANA DNA-binding disruption – biochemical, fluorescence polarization, cherry-picked samples, dose response (AID 504725).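 Also: fluorescence polarization of a labeled DNA duplex reporting LANA DNA binding; potency is for inhibitors that block LANA binding to the DNA.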 More on the design: species or system Human gammaherpesvirus 8.
Another assay deals with T4, Leucine aminopeptidase (Plasmodium falciparum 3D7, UniProt Q8IL11).
T4 sequence (Q8IL11 whole entry): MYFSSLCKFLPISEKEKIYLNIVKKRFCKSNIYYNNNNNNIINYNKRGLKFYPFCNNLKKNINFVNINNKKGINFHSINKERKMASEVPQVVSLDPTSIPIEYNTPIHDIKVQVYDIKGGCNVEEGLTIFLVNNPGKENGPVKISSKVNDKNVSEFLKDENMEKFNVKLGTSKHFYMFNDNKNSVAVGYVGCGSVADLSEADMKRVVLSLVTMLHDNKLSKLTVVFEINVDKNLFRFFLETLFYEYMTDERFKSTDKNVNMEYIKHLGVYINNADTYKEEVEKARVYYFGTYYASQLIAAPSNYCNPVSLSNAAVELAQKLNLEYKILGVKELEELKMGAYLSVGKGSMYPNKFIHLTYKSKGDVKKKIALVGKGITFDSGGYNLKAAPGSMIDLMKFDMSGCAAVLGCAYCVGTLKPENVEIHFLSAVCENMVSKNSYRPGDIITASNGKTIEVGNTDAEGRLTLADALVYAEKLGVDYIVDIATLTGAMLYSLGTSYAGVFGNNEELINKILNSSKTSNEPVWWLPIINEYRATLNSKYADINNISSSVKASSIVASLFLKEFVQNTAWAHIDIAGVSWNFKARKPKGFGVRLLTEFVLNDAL
Put plainly: P. falciparum M17LAP inhibitors, primary screen, biochemical, fluorogenic H-Leu-NHMec substrate, 1536-well (AID 1619). In kind it is functional.

In another assay the target is Estrogen receptor beta (Homo sapiens, UniProt Q92731). Put plainly: blockers of SRC-3 recruitment to ERβ – biochemical, ELISA, streptavidin-HRP readout, orthogonal assay, confirmation (AID 1060).
In assay [12] the target is Induced myeloid leukemia cell differentiation protein Mcl-1 (Homo sapiens, UniProt Q07820). It counts as functional.
The target of a further assay is Cytochrome P450 2C19 (Homo sapiens, UniProt P33261). Nature of the assay: Cytochrome panel assay with activity outcomes. Panel member name: p450-cyp2c19 Compounds with AC50 equal or less than 10 uM are considered active. In kind it is functional. To be noted: read-out: AC50.
For a further assay, the system named is H4. Put plainly: Luminescence Cell-Based Dose Response HTS to Identify Activators of 5'UTR Stem-Loop Driven Prion Protein mRNA Translation in H4 Neuroglioblastoma Cells. [Related pubchem assays: 1829 (Project Summary), 1814 (Primary HTS)]. In kind it is functional. The following applies: Homo sapiens.
The next assay deals with T5, Cytochrome P450 1A2 (Homo sapiens, UniProt P05177).
T5 sequence (P05177 whole entry): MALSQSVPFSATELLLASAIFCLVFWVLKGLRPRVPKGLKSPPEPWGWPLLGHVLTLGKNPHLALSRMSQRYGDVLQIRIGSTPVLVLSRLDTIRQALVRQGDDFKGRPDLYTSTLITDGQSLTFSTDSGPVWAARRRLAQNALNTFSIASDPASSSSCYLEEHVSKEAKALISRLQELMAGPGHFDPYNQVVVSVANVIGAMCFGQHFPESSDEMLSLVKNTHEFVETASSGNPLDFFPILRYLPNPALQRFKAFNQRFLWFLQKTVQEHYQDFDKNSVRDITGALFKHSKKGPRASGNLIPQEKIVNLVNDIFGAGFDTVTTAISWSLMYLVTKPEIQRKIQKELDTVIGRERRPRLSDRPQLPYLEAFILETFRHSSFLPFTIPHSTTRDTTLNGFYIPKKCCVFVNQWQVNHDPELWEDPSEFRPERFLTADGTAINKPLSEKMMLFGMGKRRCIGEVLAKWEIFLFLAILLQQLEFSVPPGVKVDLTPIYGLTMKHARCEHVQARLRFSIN

Assay [13] can be described thus: Luminescence Cell-Based Dose Confirmation HTS to Identify Activators of 5'UTR Stem-Loop Driven Alpha-Synuclein mRNA Translation in H4 Neuroglioblastoma Cells. [Related pubchem assays: 1829 (Project Summary), 1814 (Primary HTS)]. It counts as functional.
A short description of assay [14]: A Cell Based Secondary Assay To Explore Cytotoxicity of Compounds that Sensitize Mycobacterium Tuberculosis to Beta-Lactam Antibiotics. It counts as functional.
Assay [15] can be described thus: Luminescence Cell-Based Dose Response HTS to Identify Activators of Luciferase Translation or Activity in H4 […] Cells. [Related pubchem assays: 1829 (Project Summary), 1814 (Primary HTS)]. It counts as functional.
The target of assay [16] is T6, Heat shock factor protein 1 (Mus musculus, UniProt P38532).
T6 sequence (P38532 whole entry): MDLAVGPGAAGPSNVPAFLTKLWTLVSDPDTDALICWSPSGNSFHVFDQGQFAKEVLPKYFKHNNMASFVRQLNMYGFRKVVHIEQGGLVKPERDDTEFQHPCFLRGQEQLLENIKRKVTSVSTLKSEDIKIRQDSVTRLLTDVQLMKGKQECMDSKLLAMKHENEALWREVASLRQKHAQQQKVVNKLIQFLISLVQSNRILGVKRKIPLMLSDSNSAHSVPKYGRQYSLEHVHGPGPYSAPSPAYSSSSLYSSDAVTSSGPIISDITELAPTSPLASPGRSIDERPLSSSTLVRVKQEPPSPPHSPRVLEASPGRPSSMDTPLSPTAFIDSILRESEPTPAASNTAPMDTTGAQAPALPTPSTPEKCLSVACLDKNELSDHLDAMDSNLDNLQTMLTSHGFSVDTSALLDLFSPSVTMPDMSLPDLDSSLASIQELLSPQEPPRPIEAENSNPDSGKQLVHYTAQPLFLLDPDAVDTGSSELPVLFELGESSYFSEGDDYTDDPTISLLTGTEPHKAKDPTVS
Nature of the assay: decrease of HSF1-responsive luciferase luminescence – cell-based, NIH3T3, dose retest, confirmation (AID 2382).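 Also: NIH3T3 fibroblasts with HSF1-driven luciferase reporter stressed by proteasome inhibitor MG132; luminescence from HSF1-driven luciferase expression after 8 hours of MG132 stress.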 It counts as functional.
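For Absolute IC50 (XBP1) in this document: confirmatory dose-response counter-screen serving a CHOP assay.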

Sequence of Procathepsin L (P07711 whole entry): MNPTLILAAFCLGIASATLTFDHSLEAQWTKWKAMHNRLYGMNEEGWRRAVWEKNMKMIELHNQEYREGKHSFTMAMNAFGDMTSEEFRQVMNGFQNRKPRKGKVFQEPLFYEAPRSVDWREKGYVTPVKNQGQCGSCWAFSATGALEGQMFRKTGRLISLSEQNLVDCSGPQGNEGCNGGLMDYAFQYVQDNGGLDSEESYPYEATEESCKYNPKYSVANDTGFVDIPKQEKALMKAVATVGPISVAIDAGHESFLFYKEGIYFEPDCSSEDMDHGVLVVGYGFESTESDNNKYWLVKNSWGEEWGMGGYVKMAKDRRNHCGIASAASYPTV
Sequence of Acyl-homoserine lactone acylase PvdQ (Q9I194 24-193 limits assumed): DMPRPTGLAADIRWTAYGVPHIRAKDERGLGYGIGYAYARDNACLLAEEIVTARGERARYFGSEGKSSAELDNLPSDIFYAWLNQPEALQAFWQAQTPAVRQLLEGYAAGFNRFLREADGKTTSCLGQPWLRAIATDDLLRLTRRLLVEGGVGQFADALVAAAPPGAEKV
Sequence of Acyl-homoserine lactone acylase PvdQ (Q9I194 217-762 limits assumed): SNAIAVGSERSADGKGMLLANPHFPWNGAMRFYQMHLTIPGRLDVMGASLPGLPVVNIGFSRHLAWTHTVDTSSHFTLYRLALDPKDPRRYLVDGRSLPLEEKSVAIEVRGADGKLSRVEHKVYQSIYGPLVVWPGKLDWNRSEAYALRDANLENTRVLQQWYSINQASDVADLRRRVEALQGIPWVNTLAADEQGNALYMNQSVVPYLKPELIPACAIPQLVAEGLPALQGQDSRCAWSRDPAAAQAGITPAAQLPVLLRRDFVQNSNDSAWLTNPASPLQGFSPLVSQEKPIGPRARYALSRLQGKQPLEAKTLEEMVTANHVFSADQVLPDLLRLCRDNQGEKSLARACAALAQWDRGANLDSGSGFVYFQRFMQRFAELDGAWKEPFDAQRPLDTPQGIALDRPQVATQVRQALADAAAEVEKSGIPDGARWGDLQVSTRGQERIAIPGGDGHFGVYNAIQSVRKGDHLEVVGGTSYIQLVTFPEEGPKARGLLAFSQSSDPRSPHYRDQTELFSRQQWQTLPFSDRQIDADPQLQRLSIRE
Sequence of G-protein coupled receptor 55 (Q9Y2T6 whole entry): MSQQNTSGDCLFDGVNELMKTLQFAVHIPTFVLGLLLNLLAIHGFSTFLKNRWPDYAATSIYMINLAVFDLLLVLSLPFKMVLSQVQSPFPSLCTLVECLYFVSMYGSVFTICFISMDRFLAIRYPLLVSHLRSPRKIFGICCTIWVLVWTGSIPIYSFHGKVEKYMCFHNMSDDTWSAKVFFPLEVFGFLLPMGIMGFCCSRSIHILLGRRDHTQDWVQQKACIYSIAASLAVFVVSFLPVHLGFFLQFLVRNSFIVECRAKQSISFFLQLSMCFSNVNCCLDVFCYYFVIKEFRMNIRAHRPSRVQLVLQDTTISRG
Sequence of Aspartyl aminopeptidase (Q8I2J3 whole entry): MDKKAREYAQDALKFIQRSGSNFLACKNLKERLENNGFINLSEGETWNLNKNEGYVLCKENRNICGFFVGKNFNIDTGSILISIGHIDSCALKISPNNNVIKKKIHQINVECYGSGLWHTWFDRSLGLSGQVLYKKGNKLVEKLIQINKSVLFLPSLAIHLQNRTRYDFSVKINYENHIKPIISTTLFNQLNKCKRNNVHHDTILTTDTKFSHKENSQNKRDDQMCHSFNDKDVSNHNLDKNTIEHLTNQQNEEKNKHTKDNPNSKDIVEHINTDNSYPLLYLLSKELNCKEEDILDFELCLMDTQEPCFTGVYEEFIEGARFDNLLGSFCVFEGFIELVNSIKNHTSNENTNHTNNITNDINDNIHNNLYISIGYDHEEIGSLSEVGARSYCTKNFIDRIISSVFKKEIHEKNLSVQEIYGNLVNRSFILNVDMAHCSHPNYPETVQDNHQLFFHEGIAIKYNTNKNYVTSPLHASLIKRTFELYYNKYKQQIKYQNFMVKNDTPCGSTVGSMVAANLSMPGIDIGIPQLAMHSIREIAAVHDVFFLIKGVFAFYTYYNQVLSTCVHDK
Sequence of X-box-binding protein 1 (P17861 whole entry): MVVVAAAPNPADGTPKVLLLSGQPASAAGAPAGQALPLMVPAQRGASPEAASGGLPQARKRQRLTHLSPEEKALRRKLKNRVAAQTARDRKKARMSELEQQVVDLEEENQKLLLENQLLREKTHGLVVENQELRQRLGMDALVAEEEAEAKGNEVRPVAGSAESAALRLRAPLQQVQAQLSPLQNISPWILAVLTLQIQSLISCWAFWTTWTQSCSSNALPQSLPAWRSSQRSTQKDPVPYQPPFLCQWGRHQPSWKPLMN
Sequence of Glyceraldehyde-3-phosphate dehydrogenase (P04406 whole entry): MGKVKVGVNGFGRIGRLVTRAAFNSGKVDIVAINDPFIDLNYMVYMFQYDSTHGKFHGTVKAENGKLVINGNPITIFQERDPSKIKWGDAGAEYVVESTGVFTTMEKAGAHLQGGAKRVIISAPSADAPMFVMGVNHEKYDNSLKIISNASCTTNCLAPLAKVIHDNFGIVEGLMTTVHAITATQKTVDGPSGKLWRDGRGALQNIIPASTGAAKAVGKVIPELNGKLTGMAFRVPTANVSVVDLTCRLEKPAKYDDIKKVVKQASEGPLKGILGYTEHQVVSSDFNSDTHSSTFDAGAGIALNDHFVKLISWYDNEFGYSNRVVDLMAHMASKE
Sequence of 5-hydroxytryptamine receptor 2A (P35363 whole entry): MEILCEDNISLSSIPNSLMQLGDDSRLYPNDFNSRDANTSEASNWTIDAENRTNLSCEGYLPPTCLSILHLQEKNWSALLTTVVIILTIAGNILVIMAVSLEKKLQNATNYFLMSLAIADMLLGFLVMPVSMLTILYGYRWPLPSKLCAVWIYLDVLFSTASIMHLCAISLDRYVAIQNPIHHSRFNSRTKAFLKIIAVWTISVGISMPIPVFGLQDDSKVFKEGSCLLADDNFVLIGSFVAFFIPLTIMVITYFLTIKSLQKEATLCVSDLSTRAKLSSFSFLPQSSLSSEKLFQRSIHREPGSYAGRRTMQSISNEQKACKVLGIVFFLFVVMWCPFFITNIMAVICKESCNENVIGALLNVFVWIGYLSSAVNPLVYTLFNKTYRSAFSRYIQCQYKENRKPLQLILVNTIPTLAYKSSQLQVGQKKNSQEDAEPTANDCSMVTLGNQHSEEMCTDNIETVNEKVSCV
Sequence of Cytochrome P450 2C19 (P33261 whole entry): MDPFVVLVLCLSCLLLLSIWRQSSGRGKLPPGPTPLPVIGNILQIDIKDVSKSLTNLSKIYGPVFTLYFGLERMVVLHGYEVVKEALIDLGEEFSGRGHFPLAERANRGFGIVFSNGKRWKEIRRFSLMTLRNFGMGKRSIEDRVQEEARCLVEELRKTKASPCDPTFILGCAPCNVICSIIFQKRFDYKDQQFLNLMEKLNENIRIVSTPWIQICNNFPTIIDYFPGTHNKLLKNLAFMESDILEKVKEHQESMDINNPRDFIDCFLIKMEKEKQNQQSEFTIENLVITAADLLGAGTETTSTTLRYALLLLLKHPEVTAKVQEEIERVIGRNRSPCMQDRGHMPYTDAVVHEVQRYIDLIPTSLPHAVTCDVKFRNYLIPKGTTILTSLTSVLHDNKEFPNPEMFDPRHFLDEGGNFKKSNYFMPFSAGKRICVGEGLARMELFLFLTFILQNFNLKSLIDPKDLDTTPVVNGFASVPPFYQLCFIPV
Sequence of DNA dC->dU-editing enzyme APOBEC-3G (Q9HC16 whole entry): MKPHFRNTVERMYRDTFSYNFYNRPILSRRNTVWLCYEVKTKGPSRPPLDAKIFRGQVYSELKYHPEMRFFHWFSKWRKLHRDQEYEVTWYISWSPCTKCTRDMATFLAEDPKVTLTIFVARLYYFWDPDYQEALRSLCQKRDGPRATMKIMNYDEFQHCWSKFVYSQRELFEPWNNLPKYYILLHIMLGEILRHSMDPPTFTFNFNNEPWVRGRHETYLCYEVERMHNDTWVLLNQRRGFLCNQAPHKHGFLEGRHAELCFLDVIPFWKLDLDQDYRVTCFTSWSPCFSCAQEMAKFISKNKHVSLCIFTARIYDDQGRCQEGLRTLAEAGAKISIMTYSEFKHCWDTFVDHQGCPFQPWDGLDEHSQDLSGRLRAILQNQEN
Sequence of ORF 73 (O40947 whole entry): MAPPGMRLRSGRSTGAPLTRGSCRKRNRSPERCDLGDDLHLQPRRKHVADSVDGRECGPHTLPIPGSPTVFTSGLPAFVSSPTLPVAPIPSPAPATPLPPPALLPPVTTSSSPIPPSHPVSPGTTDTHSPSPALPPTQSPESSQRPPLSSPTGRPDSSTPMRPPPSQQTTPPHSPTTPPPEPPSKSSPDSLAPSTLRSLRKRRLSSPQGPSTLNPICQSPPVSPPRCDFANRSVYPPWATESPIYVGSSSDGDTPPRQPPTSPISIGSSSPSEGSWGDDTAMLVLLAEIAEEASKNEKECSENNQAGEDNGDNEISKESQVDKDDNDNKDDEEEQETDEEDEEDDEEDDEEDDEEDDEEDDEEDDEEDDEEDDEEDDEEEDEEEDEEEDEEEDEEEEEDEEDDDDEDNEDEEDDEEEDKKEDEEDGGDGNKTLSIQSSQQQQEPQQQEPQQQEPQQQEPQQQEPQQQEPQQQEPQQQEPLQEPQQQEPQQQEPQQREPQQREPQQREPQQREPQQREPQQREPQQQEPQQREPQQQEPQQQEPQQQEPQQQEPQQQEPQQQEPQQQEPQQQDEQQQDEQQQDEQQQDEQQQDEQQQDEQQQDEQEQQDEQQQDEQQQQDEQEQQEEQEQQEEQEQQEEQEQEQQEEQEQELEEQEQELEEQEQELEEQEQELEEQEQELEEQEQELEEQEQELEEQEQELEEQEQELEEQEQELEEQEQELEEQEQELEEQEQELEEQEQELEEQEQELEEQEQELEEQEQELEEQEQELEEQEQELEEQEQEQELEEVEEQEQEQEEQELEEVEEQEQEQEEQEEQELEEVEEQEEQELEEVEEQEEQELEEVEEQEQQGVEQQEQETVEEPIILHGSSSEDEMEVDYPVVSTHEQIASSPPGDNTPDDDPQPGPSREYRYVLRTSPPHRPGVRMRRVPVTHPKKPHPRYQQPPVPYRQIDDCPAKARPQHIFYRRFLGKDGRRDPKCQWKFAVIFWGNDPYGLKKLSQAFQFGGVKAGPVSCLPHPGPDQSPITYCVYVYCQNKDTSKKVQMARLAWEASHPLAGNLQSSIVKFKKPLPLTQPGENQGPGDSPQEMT

Consider `CCOC(=O)c1c(-c2ccccc2)oc2ccc(O)c(CN3CCN(C)CC3)c12`, for which the IC50 in assay [1] is 6.85 µM (active).
The same measure, in the same setting: as for `COc1cc(C2c3sc(=O)[nH]c3SC3C4CCC(C4)C23)ccc1O` (stereo not drawn), the figure is 0.672 µM (active).
On to `CSCC[C@H](NC(=O)c1ccc(Cl)c(S(=O)(=O)N2CCCC2)c1)c1nc2ccccc2[nH]1`, for which the results for the IC50 in [2] and in [3] were 4.93 µM (active) and 5.06 µM (active), respectively.
For the compound `O=C(Nc1ccc(Br)cc1Cl)Nn1cnnc1`, the results for the IC50 at Aspartyl aminopeptidase and on Procathepsin L were 0.711 µM (active) and > 59.6 µM (not active), respectively.
`O=C(O)CSc1nnc[nH]1`: the IC50 is 0.202 µM (active) on Aspartyl aminopeptidase and > 59.6 µM (not active) at Procathepsin L.
For the compound `Cc1ccc2c(c1)NC(C(=O)O)NS2(=O)=O` (stereo not drawn), the IC50 in assay [4] was 52.5 µM (active); in assay [5], 56.9 µM (active); in assay [6] it was 3.35 µM (active); in assay [7] it was > 100 µM (not active).
On to `Cc1ccc(Nc2nc(N)nc(CN3CCN(c4ccccc4)CC3)n2)cc1Cl`, for which the EC50 in assay [8] is 76.1 µM (inactive); in assay [9], 8.53 µM (active); at Mu-type opioid receptor, 92.5 µM (inactive); on Streptokinase A it was > 150 µM (not active); in the assay on Streptococcus, 111 µM (active). For the same compound, the “Absolute IC50 (XBP1)” value at X-box-binding protein 1 amounted to 10 µM.
For `C=CCn1c(N)cc(=O)nc1SCC(=O)Nc1cccc2ccccc12`, the IC50 in assay [10] was > 64 µM (inactive).
`N#Cc1cccnc1Nc1ccc(Cl)cc1`: in [11], the AC50 is 14.2 µM (active).
For `Cc1cccc(C)c1NC(=O)CSc1nnc(-c2ccco2)c(-c2ccco2)n1`, on ORF 73, the concentration at half-maximal activity (AC50) was 160 µM (active). Also, the IC50 is 18.9 µM (active) on Leucine aminopeptidase, 2 µM (not active) against Estrogen receptor beta and 4.92 µM (active) in assay [12].
With `CCCOc1ccc(C(=O)CCC(=O)OCC(=O)Nc2cccc(S(N)(=O)=O)c2)cc1`, in [11], the AC50 is > 100 µM (inactive).
As to `O=C(Oc1oc(-c2ccco2)nc1/C=N/c1ccc(Cl)cc1)c1ccco1`, the results for the AC50 at Cytochrome P450 2C19 and on Cytochrome P450 1A2 were 14.1 µM (inconclusive) and 15.8 µM (inconclusive), respectively. Besides, the EC50 in the assay on H4 is 31.7 µM (active); in [13] it was 14.3 µM (active); in [15] it was 21.7 µM (active). Moreover, the CC50 in assay [14] is > 40 µM (active).
Consider `Cc1cc(C)c2c(c1)/C(=N/NS(=O)(=O)c1ccc(Br)cc1)CCC2`, for which the “Absolute IC50 (XBP1)” value at X-box-binding protein 1 is 10 µM. Besides, in [16], the EC50 is on record as > 195 µM (not active).
